Reference: patent publication US5391817A, “Biaryl phospholipase A2 inhibitors” (Bristol-Myers Squibb, priority 1993, dated 1995)

Biological target: T1, PLA2 (Homo sapiens, UniProt P14555)
T1 construct: The enzyme is isolated from human platelets; from tissue; host or cells: human platelets
T1 sequence (P14555 21-144): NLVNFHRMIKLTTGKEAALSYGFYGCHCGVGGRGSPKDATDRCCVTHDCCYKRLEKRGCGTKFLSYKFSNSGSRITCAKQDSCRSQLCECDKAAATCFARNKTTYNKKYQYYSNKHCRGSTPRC
Assay: PLA2 Inhibition Assay (14C-oleate labeled E. coli membrane substrate)
Format: biochemical
Conditions: 100 μM (sic, Table 6); PLA2 from human platelets; pH 7, 37° C.
Protocol: The method used is similar to that reported by Franson, et al. [Jesse, R. L. and Franson R. C., Biochim. Biophys. Acta 575: 467-470 (1979); Franson, R. C., Patriarca, P., and Elsback, P., J. Lipid Res. 15: 380-388 (1974)]. The enzyme is isolated from human platelets. The substrate used consists of ^14 C-oleate labeled Escherichia coli membranes. E. coli cells are grown in the presence of ^14 C-oleic acid and then autoclaved to prepare the membranes.
Various concentrations of test compounds are preincubated with PLA2 (3.6 mg/mL in a buffer consisting of 25 mM HEPES (pH 7)), 150 mM NaCl, 5.0 mM CaCl2, and 10% DMSO (v/v, test compound solvent) at 37° C. for 7 minutes. The E. coli substrate is then added (0.1 mM phospholipid, 0,005 mCi ^14 C) and the reaction is then incubated at 37° C. for 30 minutes. The reaction is then terminated by the addition of 1.9 mL tetrahydrofuran (THF), and the entire solution is applied to a solid-phase extraction column (aminopropyl resin, Analytichem). The column is rinsed with an additional 1 mL of THF. The free fatty acid product of the reaction is then eluted from the column with 1 mL 2% acetic acid in THF and collected in a scintillation vial. The amount of free fatty acid product is determined by liquid scintillation counting. The amount of inhibition produced by the test compound is calculated by comparing the counts obtained in the presence of the compound to those obtained in its absence (solvent only). Background counts were determined by performing incubations in the absence of enzyme.
Percent inhibition is determined by the equation: [formula]

Structure (SMILES) | % Inhibition of PLA2 at 100 .infin.M
CC1(C)CCC(C)(C)c2cc(COc3ccccc3-c3cccc(CC(=O)O)c3)ccc21 [Structure 57, 2-[5,6,7,8-tetrahydro-5,5,8,8-tetramethyl-2-naphthalenyl]methoxy-[1,1'-biphenyl]-3'-acetic acid] | 92%
CC1(C)CCC(C)(C)c2cc(COc3ccccc3-c3ccccc3C(=O)O)ccc21 [Structure 52c, 2-[5,6,7,8-tetrahydro-5,5,8,8-tetramethyl-2-naphthalenyl]methoxy-[1,1'-biphenyl]-2'-carboxylic acid] | 72%
CC1(C)CCC(C)(C)c2cc(COc3ccccc3-c3cccc(C(=O)O)c3)ccc21 [Structure 52a, 2-[5,6,7,8-tetrahydro-5,5,8,8-tetramethyl-2-naphthalenyl]methoxy-[1,1'-biphenyl]-3'-carboxylic acid] | 83%
CC1(C)CCC(C)(C)c2cc(COc3ccccc3-c3ccc(C(=O)O)cc3)ccc21 [Structure 52b, 2-[5,6,7,8-tetrahydro-5,5,8,8-tetramethyl-2-naphthalenyl]methoxy-[1,1'-biphenyl]-4'-carboxylic acid] | 66%

Same assay, conditions: 100 μM; PLA2 from human platelets; pH 7, 37° C.

Structure (SMILES) | inhibition at 100 µM
CCCCCOc1ccc(COc2cccc(C(=O)O)c2-c2cccc(C(=O)O)c2)cc1OCCCCC [Structure 14c, 2-[(3,4-bispentyloxy)phenyl]methoxy-[1,1'-biphenyl]-6,3'-dicarboxylic acid] | 53%
CC1(C)CCC(C)(C)c2cc(COc3cccc(C(=O)O)c3-c3ccc(CCO)cc3)ccc21 [Structure 14p, 2-(5,6,7,8-tetrahydro-5,5,8,8-tetramethyl-2-naphthalenyl)methoxy-4'-(2-hydroxy-1-ethyl)-[1,1'-biphenyl]-6-carboxylic acid] | 88%
CC(C)=CCOc1ccc(COc2cccc(C(=O)O)c2-c2cccc(C(=O)O)c2)cc1OCC=C(C)C [Structure 14b, 2-[3,4-bis(3-methyl-2-butenyloxy)phenyl]methoxy-[1,1'-biphenyl]-6,3'-dicarboxylic acid] | 20%
O=C(O)/C=C/c1cccc(OCc2ccc(OC3CCCC3)c(OC3CCCC3)c2)c1-c1cccc(C(=O)O)c1 [Structure 39b] | 86%
CC(C)(C)c1ccc(-c2c(OCc3ccc4c(c3)C(C)(C)CCC4(C)C)cccc2C(=O)O)cc1 [Structure 14o, 2-(5,6,7,8-tetrahydro-5,5,8,8-tetramethyl-2-naphthalenyl)methoxy-[1,1'-biphenyl]-4'-(1,1-dimethylethyl)-6-carboxylic acid] | 99%
CCCCCCCCCCOc1ccc(COc2cccc(C(=O)O)c2-c2ccccc2)cc1 [Structure 14k, 2-[(4-decyloxy)phenyl]methoxy-[1,1'-biphenyl]-6-carboxylic acid] | 99%
CC1(C)CCC(C)(C)c2cc(COc3cccc(/C=C/C(=O)O)c3-c3cccc(C(=O)O)c3)ccc21 [Structure 39d, 3'-carboxy-2-[5,6,7,8-tetrahydo-5,5,8,8-tetramethyl-2-naphthalenyl]methoxy-[1,1'-biphenyl]-6-[(E)-3-propenoic acid]] | 72%
CC1(C)CCC(C)(C)c2cc(COc3cccc(CCC(=O)O)c3-c3cccc(C(=O)O)c3)ccc21 [Structure 37d, 3'-carboxy-2-[5,6,7,8-tetrahydro-5,5,8,8-tetramethyl-2-naphthalenyl]methoxy-[1,1'-biphenyl]-6-propanoic acid] | 54%
CC(C)=CCOc1ccc(COc2cccc(CCC(=O)O)c2-c2cccc(C(=O)O)c2)cc1OCC=C(C)C [Structure 37a, 2-[3,4-bis(3-methyl-2-butenyloxy)phenyl]methoxy-3'-carboxy-[1,1'-biphenyl]-6-propanoic acid] | 55%
O=C(O)CCc1cccc(OCc2ccc(OC3CCCC3)c(OC3CCCC3)c2)c1-c1cccc(C(=O)O)c1 [Structure 37b, 2-[3,4-bis(cyclopentyloxy)phenyl]methoxy-3'-carboxy-[1,1'-biphenyl]-6-propanoic acid] | 51%
CCCCCCCCCCOc1ccc(COc2cccc(C(=O)O)c2-c2cccc(C(=O)O)c2)cc1OCCCCCCCCCC [Structure 14a, 2-[(3,4-bisdecyloxy)phenyl]methoxy-[1,1'-biphenyl]-6,3'-dicarboxylic acid] | 99%
CC1(C)CCC(C)(C)c2cc(COc3ccc(C(=O)O)cc3-c3ccccc3)ccc21 [Structure 44, 2-[5,6,7,8-tetrahydro-5,5,8,8-tetramethyl-2-naphthalenyl]methoxy-[1,1'-biphenyl]-5-carboxylic acid] | 70%
COc1cc(COc2cccc(CC(=O)O)c2-c2cccc(C(=O)O)c2)ccc1C12CC3CC(CC(C3)C1)C2 [Structure 30d, 3'-carboxy-2-[4-(1-adamantyl)-3-methoxyphenyl]methoxy-[1,1'-biphenyl]-6-acetic acid] | 97%
CCCCCOc1ccc(COc2cccc(C(=O)O)c2-c2ccccc2)cc1OCCCCC [Structure 14i, 2-[(3,4-bispentyloxy)phenyl]methoxy-[1,1'-biphenyl]-6-carboxylic acid] | 99%
C/C(=C\c1cccc(C(=O)O)c1-c1cccc(C(=O)O)c1)c1ccc2c(c1)C(C)(C)CCC2(C)C [Structure 11, (E)-[2-(5,6,7,8-tetrahydro-5,5,8,8-tetramethyl-2-naphthalenyl)-1-propenyl]-[1,1'-biphenyl]-6,3'-dicarboxylic acid] | 80%
O=C(O)c1cccc(-c2c(OCc3ccc(OC4CCCC4)c(OC4CCCC4)c3)cccc2C(=O)O)c1 [Structure 14d, 2-[(3,4-biscyclopentyloxy)phenyl]methoxy-[1,1 'biphenyl]-6,3'-dicarboxylic acid] | 73%
CC1(C)CCC(C)(C)c2cc(COc3cccc(CC(=O)O)c3-c3ccccc3)ccc21 [Structure 30e, 2-(5,6,7,8-tetrahydro-5,5,8,8-tetramethyl-2-naphthalenyl)methoxy-[1,1'-biphenyl]-6-acetic acid] | 59%
CCOC(=O)c1cccc(-c2c(OCc3ccc4c(c3)C(C)(C)CCC4(C)C)cccc2C(=O)O)c1 [Structure 14l, 2-(5,6,7,8-tetrahydro-5,5,8,8-tetramethyl-2-naphthalenyl)methoxy-[1,1'-biphenyl]-6,3'-dicarboxylic acid, 3'-ethyl ester] | 54%
CCCCCOc1ccc(COc2cccc(C(=O)O)c2-c2ccccc2)cc1OC(C)=O [Structure 14f, 2-[(3-acetoxy-4-pentyloxy)phenyl]methoxy-[1,1'-biphenyl]-6-carboxylic acid] | 30%
CCCCCOc1ccc(COc2cccc(C(=O)O)c2-c2cccc(C(F)(F)F)c2)cc1OCCCCC [Structure 14j, 2-[(3,4-bispentyloxy)phenyl]methoxy-[1,1'-biphenyl]-3'-trifluoromethyl-6-carboxylic acid] | 98%
C/C(=C\c1cccc(CC(=O)O)c1-c1cccc(C(=O)O)c1)c1ccc2c(c1)C(C)(C)CCC2(C)C [Structure 28b, 3'-carboxy-(E)-2-[(5,6,7,8-tetrahydro-5,5,8,8,-tetramethyl-2-naphthalenyl)-1-propenyl]-[1,1'-biphenyl]-6-acetic acid] | 96%
CCCCCOc1ccc(COc2cccc(CCC(=O)O)c2-c2cccc(C(=O)O)c2)cc1OCCCCC [Structure 37c, 2-[3,4-bis (pentyloxy)phenyl]methoxy-3'-carboxy-[1,1'-biphenyl]-6-propanoic acid] | 59%
COc1cc(COc2cccc(C(=O)O)c2-c2cccc(C(=O)O)c2)ccc1C12CC3CC(CC(C3)C1)C2 [Structure 14h, 2-[4-(1-adamantyl)-3-methoxyphenyl]methoxy-[1,1,-biphenyl]-6,3'-dicarboxylic acid] | 62%
CC(C)=CCOc1ccc(COc2cccc(/C=C/C(=O)O)c2-c2cccc(C(=O)O)c2)cc1OCC=C(C)C [Structure 39a, 2-[3,4-his (3-methyl-2-butenyloxy)phenyl]methoxy-3'-carboxy-[1,1'-biphenyl]-6-[(E)-3-propenoic acid]] | 73%
COc1cc(COc2cccc(C(=O)O)c2-c2ccccc2)ccc1C12CC3CC(CC(C3)C1)C2 [Structure 14g, 2-[4-(1-adamantyl)-3-methoxyphenyl]methoxy-[1,1'-biphenyl]-6-carboxylicacid] | 44%
O=C(O)Cc1cccc(/C=C/c2ccccc2)c1-c1cccc(C(=O)O)c1 [Structure 28a, (E) 2-styryl-6-carboxymethyl-1,1'-biphenyl-3'-carboxylic acid] | 28%
CC1(C)CCC(C)(C)c2cc(COc3cccc(C(=O)O)c3-c3cccc(C(=O)O)c3)ccc21 [Structure 14m, 2-(5,6,7,8-tetrahydro-5,5,8,8-tetramethyl-2-naphthalenyl)methoxy-[1,1'-biphenyl]-6,3'-dicarboxylic acid] | 54%
